# Read-outs that look alike come from different tables or passages of the source.
# Columns and labels:
# S. aureus = experiment: MIC against S. aureus strains and clinical isolates (broth microdilution); format: cell-based, Staphylococcus aureus
# Protocol: were tested against a collection of clinical isolates of S. aureus including strains that were multi-resistant to mupirocin and to other agents such as gentamicin and oxacillin.
# The acetate and mupirocin salts of the MRS inhibitor compound 5 were tested against a collection of both low and high-level mupirocin resistant clinical isolates of S. aureus (Table 6).
# The bacterial strains were tested for susceptibility to mupirocin and MRSi compound 2 using the broth microdilution method in accordance with NCCLS guideline to determine their MICs.
# Briefly, the MIC and checkerboard titration assays were performed with strains in microtiter trays with cation-supplemented Mueller-Hinton broth (Difco). Inocula were prepared by suspending growth from blood agar plates in sterile saline to a density equivalent to that of a 0.5 McFarland standard and were diluted […] to produce a final inoculum of 5×10^5 CFU/ml. The trays were incubated aerobically overnight. Standard quality control strains were included with each run. Fractional inhibitory concentrations (FICs) were calculated as the MIC of drug A or B in combination/MIC of drug A or B alone, and the FIC index was obtained by adding the two FICs. FIC indices were interpreted as synergistic if the values were ≦0.5, additive or indifferent if the values were >0.5 to 4, and antagonistic if the values were >4.0.
# E. faecalis = experiment: MIC against E. faecalis; format: cell-based; conditions: Enterococcus faecalis, Table 8, read-out: MIC
# Protocol: The MRS inhibitor 4 alone and in combination with mupirocin (mupirocin salt and 1:1 combination) were tested against a collection of Gram-positive pathogens.
# (§1) MRSi compound 5 alone and in combination with mupirocin was tested recent clinical isolates of E. faecalis (n=28) and E. faecium (n=23). Both the acetate salt and mupirocinate salts of MRSi compound 5 maintained potent activity against vancomycin-susceptible and—resistant enterococci (Tables 8, 9, and 10).
# E. faecium = experiment: MIC against E. faecium; format: cell-based; conditions: Enterococcus faecium, ATCC33667; Table 8; E. faecium ATCC 33667; read-out: MIC
# Protocol: as §1
# [1] = all S. aureus isolates of Table 6
compound,measurement,setting,value
"O=c1cc(NC[C@H]2CCC[C@@H]2NCc2ccc(Cl)c(Cl)c2)[nH]c2ccccc12 [MRSi cmpd 3, 2-{[(1R, 2S)-2-(3,4-Dichlorobenzylamino)cyclopentylmethyl]amino}-1H-quinolin-4-one]",MIC,"S. aureus; Staphylococcus aureus, ATCC43300, S. aureus ATCC 43300 (ORSA), read-out: MIC",4 µg/mL
same,MIC,"S. aureus; Staphylococcus aureus, NRS 1 / VISA, S. aureus NRS1 (VISA), read-out: MIC",4 µg/mL
same,MIC,"S. aureus; Staphylococcus aureus, NRS107, S. aureus NRS107 (HL Mup rest.), read-out: MIC",1 µg/mL
same,MIC,"S. aureus; Staphylococcus aureus, S. aureus 10-420 (LL Mup. Rest.), read-out: MIC",2 µg/mL
same,MIC,"S. aureus; Staphylococcus aureus, S. aureus 14-354 (LL Mup. Rest.), read-out: MIC",4 µg/mL
same,MIC,"S. aureus; Staphylococcus aureus, S. aureus 25-670 (HL Mup. Rest.), read-out: MIC",4 µg/mL
same,MIC,"S. aureus; Staphylococcus aureus, S. aureus 31-1334 (LL Mup Rest.), read-out: MIC",2 µg/mL
same,MIC,"S. aureus; Staphylococcus aureus, S. aureus 36-1298 (LL Mup. Rest.), read-out: MIC",1 µg/mL
same,MIC,"S. aureus; Staphylococcus aureus, S. aureus 87-2797 (HL Mup. Rest.), read-out: MIC",4 µg/mL
same,MIC,"S. aureus; Staphylococcus aureus, S. aureus 87-2797 (Mup. Susc.), read-out: MIC",2 µg/mL
same,MIC,"S. aureus; Staphylococcus aureus, S. aureus 101-100 (Mup. Susc.), read-out: MIC",2 µg/mL
same,MIC,"S. aureus; Staphylococcus aureus, S. aureus LZ1 (HL Mup rest.), read-out: MIC",2 µg/mL
same,MIC,"S. aureus; Staphylococcus aureus, S. aureus LZ6 (HL Mup rest.), read-out: MIC",2 µg/mL
same,MIC,"S. aureus; Staphylococcus aureus, S. aureus LZ8 (LL Mup. Rest.), read-out: MIC",4 µg/mL
same,MIC,"S. aureus; Staphylococcus aureus, S. aureus LZ9, read-out: MIC",2 µg/mL
same,MIC,"S. aureus; Staphylococcus aureus, S. aureus LZ10, read-out: MIC",2 µg/mL
same,MIC,"S. aureus; Staphylococcus aureus, S. aureus Miles Hall, read-out: MIC",2 µg/mL
same,MIC,"S. aureus; Staphylococcus aureus, S. aureus Oxford, read-out: MIC",2 µg/mL
same,MIC90,"S. aureus; Staphylococcus aureus, all S. aureus strains of Table 1, read-out: MIC 90",4 µg/mL
same,MIC Range,S. aureus; all S. aureus strains of Table 1 (mupirocin-susceptible and -resistant),1 to 4 µg/mL
same,MIC,"E. faecalis; ATCC 51299 / VRE, E. faecalis ATCC 51299 (VRE)",0.5 µg/mL
same,MIC,E. faecalis; E. faecalis 1,0.12 µg/mL
same,MIC,E. faecalis; E. faecalis 7,0.5 µg/mL
same,MIC,E. faecium,0.03 µg/mL
Gentamicin,MIC,S. aureus; S. aureus 10-420 (LL Mup. Rest.),64 µg/mL
same,MIC,S. aureus; S. aureus 14-354 (LL Mup. Rest.),>64 µg/mL
same,MIC,S. aureus; S. aureus 25-670 (HL Mup. Rest.),>64 µg/mL
same,MIC,S. aureus; S. aureus 31-1334 (LL Mup Rest.),64 µg/mL
same,MIC,S. aureus; S. aureus 36-1298 (LL Mup. Rest.),0.5 µg/mL
same,MIC,S. aureus; S. aureus 87-2797 (HL Mup. Rest.),0.25 µg/mL
same,MIC,S. aureus; S. aureus 87-2797 (Mup. Susc.),0.25 µg/mL
same,MIC,S. aureus; S. aureus 101-100 (Mup. Susc.),0.12 µg/mL
same,MIC,S. aureus; S. aureus ATCC 43300 (ORSA),4 µg/mL
same,MIC,S. aureus; S. aureus LZ1 (HL Mup rest.),0.5 µg/mL
same,MIC,S. aureus; S. aureus LZ6 (HL Mup rest.),0.25 µg/mL
same,MIC,S. aureus; S. aureus LZ8 (LL Mup. Rest.),64 µg/mL
same,MIC,S. aureus; S. aureus LZ9,64 µg/mL
same,MIC,S. aureus; S. aureus LZ10,64 µg/mL
same,MIC,S. aureus; S. aureus Miles Hall,0.5 µg/mL
same,MIC,S. aureus; S. aureus NRS1 (VISA),>64 µg/mL
same,MIC,S. aureus; S. aureus NRS107 (HL Mup rest.),0.25 µg/mL
same,MIC,S. aureus; S. aureus Oxford,0.5 µg/mL
same,MIC90,S. aureus; all S. aureus strains of Table 1,>64 µg/mL
"N-(4-bromo-5-(1-fluorovinyl)-3-methylthiophen-2-ylmethyl)-N′(1H-quinolin-4-one)propane-1,3-diamine Mupirocinate [MRSi Cmpd 5 mupirocinate]",MIC50,S. aureus; [1],0.12 µg/mL
same,MIC90,S. aureus; [1],1 µg/mL

# Source: US20040224981A1, “Antibacterial methods and compositions” (priority 2003, published 2004)
